Experimental data as given in patent US9302999B2, “Substituted triazoles as herbicides” (E. I. DU PONT DE NEMOURS AND COMPANY, priority 2012, dated 2016).

Experiments:
Type in all cases: in vivo
[1] = tested on: crabgrass, large (large crabgrass, Digitaria sanguinalis); assay: Test A pre-/postemergence: crabgrass, large; settings: for Crabgrass, Large plant response rating: Postemergence; for Plant response rating, Crabgrass, Large: Preemergence
Procedure, shortened: (§1)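 Compounds, formulated with surfactant in non-phytotoxic solvent, were applied as a directed soil spray preemergence and as postemergence sprays to 2–10 cm, one- to two-leaf seedlings grown in loam soil blended with sand; visual injury, 0–100, assessed ~10 days post-treatment against untreated controls.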

[2] = tested on: velvetleaf (Abutilon theophrasti); assay: Test A pre-/postemergence: velvetleaf; settings: for Velvetleaf plant response rating: Postemergence; for Plant response rating, Velvetleaf: Preemergence
Procedure, shortened: as §1

[3] = tested on: johnsongrass (Sorghum halepense); assay: Test C pre-/postemergence: johnsongrass
Source text: (§2) Seeds of plant species selected from blackgrass (Alopecurus myosuroides), bromegrass, downy (downy bromegrass, Bromus tectorum), foxtail, green (green foxtail, Setaria viridis), ryegrass, Italian (Italian ryegrass, Lolium multiflorum), winter wheat (Triticum aestivum), wild oat (Avena fatua), galium (catchweed bedstraw, Galium aparine), bermudagrass (Cynodon dactylon), surinam grass (Brachiaria decumbens), cocklebur (common cocklebur, Xanthium strumarium), corn (Zea mays), large crabgrass (Digitaria sanguinalis), woolly cupgrass (Eriochloa villosa), foxtail, giant (giant foxtail, Setaria faberii), goosegrass (Eleusine indica), johnsongrass (Sorghum halepense), kochia (Kochia scoparia), lambsquarters (Chenopodium album), morningglory (Ipomoea coccinea), nightshade (eastern black nightshade, Solanum ptycanthum), nutsedge, yellow (yellow nutsedge, Cyperus esculentus), pigweed (Amaranthus retroflexus), ragweed (common ragweed, Ambrosia elation), soybean (Glycine max), common (oilseed) sunflower (Helianthus annuus), Russian thistle (Salsola kali) and velvetleaf (Abutilon theophrasti) were planted into a blend of loam soil and sand and treated preemergence with test chemicals formulated in a non-phytotoxic solvent mixture which included a surfactant.
(§3) At the same time, plants selected from these crop and weed species and also barley (winter barley, Hordeum vulgare), canarygrass (Phalaris minor), chickweed (common chickweed, Stellaria media) windgrass (Apera spica-venti) and deadnettle (henbit deadnettle, Lamium amplexicaule) were planted in pots containing Redi-Earth® planting medium (Scotts Company, 14111 Scottslawn Road, Marysville, Ohio 43041) comprising spaghnum peat moss, vermiculite, wetting agent and starter nutrients and treated with postemergence applications of test chemicals formulated in the same manner. Plants ranged in height from 2 to 18 cm (1- to 4-leaf stage) for postemergence treatments.
(§4) Treated plants and controls were maintained in a greenhouse for 13 to 15 days, after which time all species were compared to controls and visually evaluated. Plant response ratings, summarized in Table C, are based on a scale of 0 to 100 where 0 is no effect and 100 is complete control. A dash (-) response means no test result.

[4] = tested on: morningglory (Ipomoea spp.); assay: Test A pre-/postemergence: morningglory; settings: for Morningglory plant response rating: Postemergence; for Plant response rating, Morningglory: Preemergence
Procedure, shortened: as §1

[5] = tested on: bromegrass, downy (downy bromegrass, Bromus tectorum); assay: Test C pre-/postemergence: bromegrass, downy
Source text: as §2, §3, §4

[6] = tested on: blackgrass (Alopecurus myosuroides); assay: Test C pre-/postemergence: blackgrass
Source text: as §2, §3, §4

[7] = tested on: foxtail, giant (giant foxtail, Setaria faberii); assay: Test A pre-/postemergence: foxtail, giant; settings: for Foxtail, Giant plant response rating: Postemergence; for Plant response rating, Foxtail, Giant: Preemergence
Procedure, shortened: as §1

[8] = tested on: galium (catchweed bedstraw, Galium aparine); assay: Test C pre-/postemergence: galium
Procedure, shortened: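 Preemergence on seeds in loam/sand, postemergence on 2–18 cm (1–4-leaf) plants in peat-based medium; compounds in non-phytotoxic solvent with surfactant. After 13–15 days in greenhouse, visual rating versus controls, 0 (no effect) to 100 (complete control).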

[9] = tested on: nightshade (eastern black nightshade, Solanum ptycanthum); assay: Test C pre-/postemergence: nightshade; settings: Preemergence
Source text: as §2, §3, §4

[10] = 125 g ai/ha, 0 to 100 scale, 0 is no effect, 100 is complete control
[11] = 500 g ai/ha, visual rating on 0 to 100 scale (0 no effect, 100 complete control), approximately ten days
[12] = 125 g ai/ha, 0 to 100 scale (0 no effect, 100 complete control)
[13] = 500 g ai/ha, 0 to 100 scale, 0 is no effect, 100 is complete control
[14] = Postemergence, 31 g ai/ha, scale 0 to 100 (0 no effect, 100 complete control)
[15] = Postemergence, 62 g ai/ha, scale 0 to 100 (0 no effect, 100 complete control)
[16] = Postemergence, 125 g ai/ha, scale 0 to 100, 0 no effect, 100 complete control
[17] = Postemergence, 250 g ai/ha, scale 0 to 100
[18] = Preemergence, 31 g ai/ha, scale of 0 to 100, 0 is no effect, 100 is complete control
[19] = Preemergence, 62 g ai/ha, scale of 0 to 100, 0 is no effect, 100 is complete control
[20] = Preemergence, 125 g ai/ha, scale 0 to 100, 0 no effect, 100 complete control
[21] = Preemergence, 250 g ai/ha, scale 0 to 100, 0 no effect, 100 complete control
[22] = Preemergence, 62 g ai/ha, scale 0 to 100, 0 no effect, 100 complete control

Fc1ccc(-n2nc(Cc3ccnc(C(F)(F)F)c3)c(OC(F)F)n2)cc1 [Compound 25]
Crabgrass, Large plant response rating [1, 10]: 90 | Crabgrass, Large plant response rating [1, 11]: 90 | Plant response rating, Crabgrass, Large [1, 12]: 90 | Plant response rating, Crabgrass, Large [1, 13]: 100 | Velvetleaf plant response rating [2, 10]: 80 | Velvetleaf plant response rating [2, 11]: 100 | Plant response rating, Velvetleaf [2, 12]: 20 | Plant response rating, Velvetleaf [2, 13]: 80 | Plant response rating, Johnsongrass [3, 14]: 5 | Plant response rating, Johnsongrass [3, 15]: 5 | Plant response rating, Johnsongrass [3, 16]: 10 | Plant response rating, Johnsongrass [3, 17]: 15 | Plant response rating, Johnsongrass [3, 18]: 5 | Plant response rating, Johnsongrass [3, 19]: 30 | Plant response rating, Johnsongrass [3, 20]: 65 | Plant response rating, Johnsongrass [3, 21]: 98 | Morningglory plant response rating [4, 10]: 100 | Morningglory plant response rating [4, 11]: 100 | Plant response rating, Morningglory [4, 12]: 30 | Plant response rating, Morningglory [4, 13]: 80 | Plant response rating, Bromegrass, Downy [5, 14]: 5 | Plant response rating, Bromegrass, Downy [5, 15]: 5 | Plant response rating, Bromegrass, Downy [5, 16]: 5 | Plant response rating, Bromegrass, Downy [5, 17]: 10 | Plant response rating, Bromegrass, Downy [5, 18]: 5 | Plant response rating, Bromegrass, Downy [5, 22]: 5 | Plant response rating, Bromegrass, Downy [5, 20]: 40 | Plant response rating, Bromegrass, Downy [5, 21]: 80 | Plant response rating, Blackgrass [6, 14]: 10 | Plant response rating, Blackgrass [6, 15]: 35 | Plant response rating, Blackgrass [6, 16]: 40 | Plant response rating, Blackgrass [6, 17]: 60 | Plant response rating, Blackgrass [6, 18]: 60 | Plant response rating, Blackgrass [6, 22]: 85 | Plant response rating, Blackgrass [6, 20]: 95 | Plant response rating, Blackgrass [6, 21]: 100 | Foxtail, Giant plant response rating [7, 10]: 90 | Foxtail, Giant plant response rating [7, 11]: 90 | Plant response rating, Foxtail, Giant [7, 12]: 100 | Plant response rating, Foxtail, Giant [7, 13]: 100 | Plant response rating, Galium [8, 14]: 50 | Plant response rating, Galium [8, 15]: 50 | Plant response rating, Galium [8, 16]: 55 | Plant response rating, Galium [8, 17]: 55 | Plant response rating, Galium [8, 18]: 0 | Plant response rating, Galium [8, 19]: 15 | Plant response rating, Galium [8, 20]: 80 | Plant response rating, Galium [8, 21]: 98 | Plant response rating, Nightshade ([9]; 31 g ai/ha, scale of 0 to 100, 0 is no effect, 100 is complete control): 10 | Plant response rating, Nightshade ([9]; 62 g ai/ha, scale of 0 to 100, 0 is no effect, 100 is complete control): 45 | Plant response rating, Nightshade ([9]; 125 g ai/ha, scale 0 to 100, 0 no effect, 100 complete control): 95 | Plant response rating, Nightshade ([9]; 250 g ai/ha, scale 0 to 100, 0 no effect, 100 complete control): 95
